According to ChEMBL document CHEMBL2203232, “Design and discovery of new (3S,5R)-5-[4-(2-chlorophenyl)-2,2-dimethyl-5-oxopiperazin-1-yl]piperidine-3-carboxamides as potent renin inhibitors” (Bioorg Med Chem Lett, 2012):
Changes are numbered by the printed parent chain. The source made the active and inactive calls. No cut-off for these calls is given here.

Legend:
Renin [1] = biological target: T1, Renin (Macaca fascicularis, UniProt Q6DLS0); assay: Inhibition of renin in cynomolgus monkey plasma after 60 mins by competitive radioimmunoassay
T1 sequence (Q6DLS0 whole entry): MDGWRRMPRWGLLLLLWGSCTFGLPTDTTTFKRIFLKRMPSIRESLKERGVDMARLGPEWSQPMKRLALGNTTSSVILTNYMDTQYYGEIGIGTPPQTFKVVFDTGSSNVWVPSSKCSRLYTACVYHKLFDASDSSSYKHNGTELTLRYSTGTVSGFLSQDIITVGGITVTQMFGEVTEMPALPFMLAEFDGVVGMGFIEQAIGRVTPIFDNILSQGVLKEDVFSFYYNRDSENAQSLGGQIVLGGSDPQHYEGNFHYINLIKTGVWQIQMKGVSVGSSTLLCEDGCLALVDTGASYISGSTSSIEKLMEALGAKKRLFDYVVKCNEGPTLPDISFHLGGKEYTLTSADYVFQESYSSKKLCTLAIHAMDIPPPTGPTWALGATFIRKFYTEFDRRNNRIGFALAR

Renin [2] = biological target: T2, Renin (Homo sapiens, UniProt P00797); assay: Inhibition of recombinant human renin using Arg-Glu(EDANS)-Ile-His-Pro-Phe-His-Leu-Val-Ile-His-Thr-Lys(DABCYL)-Arg as substrate incubated for 10 mins prior to substrate addition measured after 90 mins by fluorimetric analysis
T2 sequence (P00797 whole entry): T1 sequence (Q6DLS0 whole entry) with A68T, L214I, A235S

Rattus norvegicus = assay: Antihypertensive activity in transgenic rat expressing human angiotensin and renin assessed as reduction in mean arterial blood pressure at 10 mg/kg, po measured up to 24 hrs; format: functional, organism-based; parameters: dose 10 mg/kg; conditions: Artery
[3] = Half life in Sprague-Dawley rat at 1 mg/kg, iv; format: ADME, organism-based; parameters: dose 1 mg/kg, route intravenous; conditions: in vivo
[4] = Volume of distribution at steady state in Sprague-Dawley rat at 1 mg/kg, iv; format: ADME, organism-based; parameters: dose 1 mg/kg, route intravenous; conditions: in vivo, read-out: Vdss
[5] = Clearance in Sprague-Dawley rat at 1 mg/kg, iv; format: ADME, organism-based; parameters: dose 1 mg/kg, route intravenous; conditions: in vivo
[6] = AUC (0 to 24 hrs) in Sprague-Dawley rat at 10 mg/kg, po; format: ADME, organism-based; parameters: time < 24 hr, dose 10 mg/kg, route oral; conditions: plasma
[7] = Cmax in Sprague-Dawley rat at 10 mg/kg, po; format: ADME, organism-based; parameters: dose 10 mg/kg, route oral; conditions: in vivo
[8] = Oral bioavailability in Sprague-Dawley rat at 10 mg/kg; format: ADME, organism-based; conditions: in vivo

| Compound | IC50 (Renin [1]) [nM] | IC50 (Renin [2]) [nM] | also measured |
| --- | --- | --- | --- |
| CC(C)CCNC(=O)[C@@H]1CNC[C@H](C(=O)N2CC(=O)N(c3ccccc3Cl)CC2(C)C)C1 | > 1000 | > 1000 |  |
| CC(C)CCNC(=O)[C@@H]1CNC[C@H](CN2CC(=O)N(c3ccccc3Cl)CC2(C)C)C1 | > 1000 |  |  |
| CC(C)C[C@@H](NC(=O)[C@@H]1CNC[C@H](N2CC(=O)N(c3ccccc3Cl)CC2(C)C)C1)c1ccccc1 | 9 | 2.1 |  |
| CC(C)CC(CC(C)C)NC(=O)[C@@H]1CNC[C@H](N2CC(=O)N(c3ccccc3Cl)CC2(C)C)C1 | 10 |  |  |
| CC(C)CCNC(=O)[C@@H]1CNC[C@H](N2CC(=O)N(c3ccccc3Cl)CC2(C)C)C1 | 54 |  |  |
| CC(C)C[C@@H](NC(=O)[C@@H]1CNC[C@H](N2CC(=O)N(c3ccccc3Cl)CC2(C)C)C1)C(=O)N(C)C | 23 | 8.4 |  |
| CCC[C@@H](NC(=O)[C@@H]1CNC[C@H](N2CC(=O)N(c3ccccc3Cl)CC2(C)C)C1)c1ccccc1 | 18 | 2.5 |  |
| CC[C@H](CC(C)C)NC(=O)[C@@H]1CNC[C@H](N2CC(=O)N(c3ccccc3Cl)CC2(C)C)C1 | 16 | 2.8 |  |
| CC(C)C[C@@H](NC(=O)[C@@H]1CNC[C@H](N2CC(=O)N(c3ccccc3Cl)CC2(C)C)C1)C(O)C(C)C (stereo in doubt; 14) | 7.5 | 2.5 |  |

These reach a lower IC50 (Renin [1]). Values come first.

| IC50 (Renin [1]) [nM] | IC50 (Renin [2]) [nM] | Compound | also measured |
| --- | --- | --- | --- |
| 4.8 | 2.3 | CC(C)C[C@@H](NC(=O)[C@@H]1CNC[C@H](N2CC(=O)N(c3ccccc3Cl)CC2(C)C)C1)C(O)C(C)C (stereo in doubt; 13) |  |
| 6.6 | 2.1 | CC[C@@H](NC(=O)[C@@H]1CNC[C@H](N2CC(=O)N(c3ccccc3Cl)CC2(C)C)C1)c1ccccc1 |  |
| 4.2 | 2.1 | CC(C)C[C@@H](NC(=O)[C@@H]1CNC[C@H](N2CC(=O)N(c3ccccc3Cl)CC2(C)C)C1)c1cccnc1 |  |
| 1.4 | 1.3 | CCOC[C@@H](CC(C)C)NC(=O)[C@@H]1CNC[C@H](N2CC(=O)N(c3ccccc3Cl)CC2(C)C)C1.O=C(O)/C=C/C(=O)O | Activity (Rattus norvegicus): Active; half-life [3]: 192 min; Vd [4]: 5.8 L/kg; clearance [5]: 31 mL/min/kg; AUC(0-t) at 24 h [6]: 1940 ng·h/mL; Cmax [7]: 540 ng/mL; bioavailability [8]: 45% |
